Laboratory results: patent US20100256243A1, “Dosing Regimen for the Treatment of Alzheimer's Disease With Sulfonyl Fluorides” (priority 2009, published 2010)
Where a chain is given by its changes, count along the chain named. Values joined by “and” are separate entries in the source; they are usually repeats but may differ in a detail not shown here. Equal values may be shown once. “Also recorded” adds a separate entry of the source.

Legend:
aged rats = conditions: daily doses (Malin et al., 1993); cited from earlier work
rats [1] = conditions: daily doses (Borlongan et al., 2005); cited from earlier work
[2] = system: septal choline acetyltransferase; conditions: cerebrally ischemic animals, versus vehicle-treated animals (U.S. Patent Publication 2003/0087959); cited from earlier work
animals = assay: Acute oral toxicity (LD50) of MSF in animals; type: in vivo, rats
Experimental: The acute oral LD50, as indicated by the data, was determined to be greater than 3 mg/kg but less than 4 mg/kg.

brain AChE [3] = conditions: oral MSF 0.5 mg/kg daily, after 5 days of administration; cited from earlier work
[4] = molecular target: T1, brain acetylcholinesterase (Rattus norvegicus, UniProt P37136); conditions: cited from earlier work
T1 construct: host or cells: rodent brain, dosed in vivo
T1 sequence (P37136 32-614): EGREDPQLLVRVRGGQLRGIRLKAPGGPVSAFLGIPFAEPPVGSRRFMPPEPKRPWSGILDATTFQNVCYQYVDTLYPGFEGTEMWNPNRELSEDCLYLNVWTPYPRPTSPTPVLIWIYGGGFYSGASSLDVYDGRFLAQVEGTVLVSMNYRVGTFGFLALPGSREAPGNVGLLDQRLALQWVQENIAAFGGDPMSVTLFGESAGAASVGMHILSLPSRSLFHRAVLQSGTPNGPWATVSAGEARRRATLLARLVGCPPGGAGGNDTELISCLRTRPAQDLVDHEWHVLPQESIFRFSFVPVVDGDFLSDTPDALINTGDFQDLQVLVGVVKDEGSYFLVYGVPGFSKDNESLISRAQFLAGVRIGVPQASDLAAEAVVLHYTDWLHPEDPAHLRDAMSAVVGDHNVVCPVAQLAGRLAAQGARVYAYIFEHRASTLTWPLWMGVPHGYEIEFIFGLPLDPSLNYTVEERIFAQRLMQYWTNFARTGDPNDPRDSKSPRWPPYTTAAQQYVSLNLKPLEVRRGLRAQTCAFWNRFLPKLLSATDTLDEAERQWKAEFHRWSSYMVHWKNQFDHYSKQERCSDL

[5] = system: enzyme in the periphery (cholinesterase); conditions: rodents, administered daily at low doses (Moss et al., 1988); cited from earlier work
[6] = system: brain acetylcholinesterase; conditions: cited from earlier work
[7] = system: patients with senile dementia of Alzheimer type; conditions: patients with senile dementia of Alzheimer type (U.S. Pat. No. 5,798,392); cited from earlier work
rats [8] = conditions: daily doses (Palacios-Esquivel et al., 1993); cited from earlier work
brain AChE [9] = molecular target: T2, brain AChE (Mus musculus, UniProt P21836); conditions: ex vivo, mice, without toxicity (Kobayashi et al., 1999); cited from earlier work
T2 construct: host or cells: mouse brain, ex vivo
T2 sequence (P21836 32-614): T1 sequence (P37136 32-614) with I59V, T109A, S128A, T144A, S271A, D313E, A392T, V467T, Q478K, R499Q

human cortex AChE = molecular target: T3, human cortex AChE (Homo sapiens, UniProt P22303); conditions: in vitro (Pacheco et al., 1995); cited from earlier work
T3 construct: host or cells: human cortex, in vitro
T3 sequence (P22303 32-614): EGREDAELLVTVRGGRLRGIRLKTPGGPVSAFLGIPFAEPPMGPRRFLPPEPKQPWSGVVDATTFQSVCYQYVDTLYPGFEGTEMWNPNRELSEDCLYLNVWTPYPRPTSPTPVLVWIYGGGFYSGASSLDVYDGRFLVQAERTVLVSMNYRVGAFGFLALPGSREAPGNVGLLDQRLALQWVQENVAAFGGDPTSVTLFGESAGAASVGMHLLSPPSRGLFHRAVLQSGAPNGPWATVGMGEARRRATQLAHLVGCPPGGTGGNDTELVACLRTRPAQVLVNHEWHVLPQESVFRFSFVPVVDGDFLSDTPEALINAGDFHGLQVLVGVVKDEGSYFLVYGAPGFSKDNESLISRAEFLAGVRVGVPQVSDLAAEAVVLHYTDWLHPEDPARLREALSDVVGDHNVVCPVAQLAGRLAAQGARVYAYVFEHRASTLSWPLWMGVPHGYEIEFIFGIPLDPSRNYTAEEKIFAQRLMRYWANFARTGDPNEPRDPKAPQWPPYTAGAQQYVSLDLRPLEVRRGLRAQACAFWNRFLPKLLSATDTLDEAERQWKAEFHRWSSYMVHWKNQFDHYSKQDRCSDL

rats [10] = assay: Alternating day dosing with 2.0 mg/kg MSF/peanut oil in rats (death); type: in vivo; conditions: 2 mg/kg every other day; for Number Alive/Numbered Treated / lethality: oral
Experimental: To confirm the “pulsing” theory for MSF administration, the inventor continued the experiment described above and extended MSF treatment to double the total lethal dose observed in Example 1 (from 4 mg/kg to 8 mg/kg). Rats in were treated at 2 mg/kg/every other day for 2 more round (total of 8 mg/kg in 8 days).

[11] = system: cerebrally ischemic animals; conditions: compared to untreated controls (U.S. Patent Publication 2003/0087959); cited from earlier work
brain AChE [12] = molecular target: T4, brain AChE (Rattus norvegicus, UniProt P37136); conditions: ex vivo, rats, without toxicity (Moss et al., 1985); cited from earlier work
T4 construct: host or cells: rat brain, ex vivo
T4 sequence (P37136 32-614): T1 sequence (P37136 32-614)

[13] = molecular target: T5, acetylcholinesterase in the brain (Rattus norvegicus, UniProt P37136); conditions: cerebrally ischemic animals (U.S. Patent Publication 2003/0087959); cited from earlier work
T5 construct: host or cells: brain of cerebrally ischemic animals, dosed in vivo
T5 sequence (P37136 32-614): T1 sequence (P37136 32-614)

rats [14] = assay: Daily dosing with 1.0 mg/kg MSF/peanut oil in rats (clinical signs of distress and/or death); type: in vivo
[15] = relatively small doses over a long period of time (Moss et al., 1988; 1985)

CS(=O)(=O)F [MSF, methanesulfonyl fluoride]
reversing normal age-related memory impairment (aged rats): highly effective
reversing ischemia-induced cognitive deficits (rats [1]): highly effective
septal choline acetyltransferase immunoreactivity [2]: more intense septal choline acetyltransferase immunoreactivity
Number Dead/Number Treated, Combination (animals; 1 mg/kg (0.4 mg/mL)): 0/10
Number Dead/Number Treated, Females (animals; 1 mg/kg (0.4 mg/mL)): 0/5
Number Dead/Number Treated, Males (animals; 1 mg/kg (0.4 mg/mL)): 0/5
Number Dead/Number Treated, Combination (animals; 2 mg/kg (0.8 mg/mL)): 0/10
Number Dead/Number Treated, Females (animals; 2 mg/kg (0.8 mg/mL)): 0/5
Number Dead/Number Treated, Males (animals; 2 mg/kg (0.8 mg/mL)): 0/5
Number Dead/Number Treated, Combination (animals; 3 mg/kg (1.2 mg/mL)): 1/10
Number Dead/Number Treated, Females (animals; 3 mg/kg (1.2 mg/mL)): 1/5
Number Dead/Number Treated, Males (animals; 3 mg/kg (1.2 mg/mL)): 0/5
Number Dead/Number Treated, Combination (animals; 4 mg/kg (1.6 mg/mL)): 10/10
Number Dead/Number Treated, Females (animals; 4 mg/kg (1.6 mg/mL)): 5/5
Number Dead/Number Treated, Males (animals; 4 mg/kg (1.6 mg/mL)): 5/5
inhibition in the brain (brain AChE [3]): 90%
inhibition of rodent brain acetylcholinesterase [4, 15]: 80-90%
inhibition of brain cholinesterase (average) ([4]; rodents, administered daily at low doses (Moss et al., 1988)): 90%
inhibition of enzyme in the periphery [5]: less than 30%
inhibition of brain AChE ([6]; ex vivo, monkey cortex, without toxicity (Moss et al., 1988)): up to 80%
inhibition of monkey brain acetylcholinesterase [6, 15]: 80-90%
cognitive performance in patients [7]: improvement in cognitive performance
reversing scopolamine-induced amnesia (rats [8]): highly effective
inhibition of brain AChE (brain AChE [9]): up to 80%
selectivity for inhibition of human cortex AChE compared to butyrylcholinesterase (human cortex AChE): highly selective
animals survived (rats [10]; total of 8 mg/kg in 8 days): 83.3%
Number Alive/Numbered Treated (rats [10]; 4 days (total 4 mg/kg)): 6/6 (3 males + 3 female)
lethality (rats [10]; 4 days (total 4 mg/kg)): no lethal event; also recorded: By Day 4, all rats were alive and it was decided to continue the treatment
Number Alive/Numbered Treated (rats [10]; 8 days (total 8 mg/kg)): 5/6 (3 males + 3 female) and 5/6
lethality (rats [10]; 8 days (total 8 mg/kg), follow-up over two weeks): 1 animal was found dead
cognitive performance [11]: improved cognitive performance
inhibition of brain AChE (brain AChE [12]): up to 80%
inhibition of acetylcholinesterase in the brain [13]: about 90%
clinical signs of distress and/or death (rats [14]; oral gavage, 1.0 mg/kg daily, MSF/peanut oil 1.0 mg/ml, 1 mg/kg): high toxicity and animal deaths
Number Alive/Numbered Treated (rats [14]; oral, 1 mg/kg daily, 4 days): 0/7 (4 males + 3 female)
